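Method: 48-hour compound exposure of cells in 96-well plates, five concentrations, linear interpolation of endpoints. Here, GI50 denotes the concentration required for 50% inhibition of growth.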 Active and inactive are the calls of the source. No stated cut-off is given here; in the data, active = GI50 up to about 1.1 µM and inactive = higher.
Tests used:
Assay in all cases: DTP human tumour cell line panel, 48 h
EKVX = system: EKVX
IGROV-1 = system: IGROV-1
CAKI-1 = system: CAKI-1
A549 = system: A549
NCI-H522 = system: NCI-H522
SF-295 = system: SF-295
HT-29 = system: HT-29
SNB-75 = system: SNB-75
MDA-N = system: MDA-N
PC-3 = system: PC-3
SK-MEL-5 = system: SK-MEL-5
OVCAR-8 = system: OVCAR-8
NCI-H226 = system: NCI-H226
UACC-257 = system: UACC-257
SR = system: SR
OVCAR-3 = system: OVCAR-3
T47D = system: T47D
NCI/ADR-RES = system: NCI/ADR-RES
Hs-578T = system: Hs-578T
MDA-MB-435 = system: MDA-MB-435
RPMI-8226 = system: RPMI-8226
M14 = system: M14
OVCAR-5 = system: OVCAR-5
HCT-15 = system: HCT-15
RXF 393 = system: RXF 393
SN12C = system: SN12C
HCC 2998 = system: HCC 2998
SW-620 = system: SW-620
UO-31 = system: UO-31
MOLT-4 = system: MOLT-4
HOP-62 = system: HOP-62
786-0 = system: 786-0
NCI-H23 = system: NCI-H23
U-251 = system: U-251
ACHN = system: ACHN
SNB-19 = system: SNB-19
MCF7 = system: MCF7
K562 = system: K562
SF-539 = system: SF-539
KM12 = system: KM12
COLO 205 = system: COLO 205
BT-549 = system: BT-549
CCRF-CEM = system: CCRF-CEM
SK-OV-3 = system: SK-OV-3
TK-10 = system: TK-10
HCT-116 = system: HCT-116
DU-145 = system: DU-145
NCI-H460 = system: NCI-H460
Malme-3M = system: Malme-3M
SK-MEL-28 = system: SK-MEL-28
OVCAR-4 = system: OVCAR-4
SK-MEL-2 = system: SK-MEL-2
MDA-MB-231 = system: MDA-MB-231
SF-268 = system: SF-268
LOX IMVI = system: LOX IMVI
A498 = system: A498
HL-60 = system: HL-60
UACC-62 = system: UACC-62

## Cc1ccc(/C=C/c2n[nH]c(N/N=C/c3ccc4c(c3)OCO4)nc2=O)cc1
EKVX
  GI50: 35.3 µM (inactive)
IGROV-1
  GI50: 20.2 µM (inactive)
CAKI-1
  GI50: 33.3 µM (inactive)
A549
  GI50: 38.5 µM (inactive)
NCI-H522
  GI50: 28.8 µM (inactive)
SF-295
  GI50: 33.7 µM (inactive)
HT-29
  GI50: 24 µM (inactive)
SNB-75
  GI50: 15 µM (inactive)
MDA-N
  GI50: 25.3 µM (inactive)
PC-3
  GI50: 21 µM (inactive)
SK-MEL-5
  GI50: 30.1 µM (inactive)
OVCAR-8
  GI50: 15.5 µM (inactive)
NCI-H226
  GI50: 26.9 µM (inactive)
UACC-257
  GI50: 40.1 µM (inactive)
SR
  GI50: 11.2 µM (inactive)
OVCAR-3
  GI50: 19.6 µM (inactive)
T47D
  GI50: 36.6 µM (inactive)
NCI/ADR-RES
  GI50: 9.23 µM (inactive)
Hs-578T
  GI50: 13.6 µM (inactive)
MDA-MB-435
  GI50: 33.4 µM (inactive)
RPMI-8226
  GI50: 67.8 µM (inactive)
M14
  GI50: 36.6 µM (inactive)
OVCAR-5
  GI50: > 100 µM (inactive)
HCT-15
  GI50: 44.9 µM
RXF 393
  GI50: 27.2 µM (inactive)
SN12C
  GI50: 18.5 µM (inactive)
HCC 2998
  GI50: 22.3 µM (inactive)
SW-620
  GI50: 19.5 µM (inactive)
UO-31
  GI50: 88.7 µM (inactive)
MOLT-4
  GI50: 39.9 µM (inactive)
HOP-62
  GI50: 19 µM (inactive)
786-0
  GI50: 14.4 µM (inactive)
NCI-H23
  GI50: 15.4 µM (inactive)
U-251
  GI50: 17.6 µM (inactive)
ACHN
  GI50: 25.2 µM (inactive)
SNB-19
  GI50: 18.5 µM (inactive)
MCF7
  GI50: 23.3 µM (inactive)
K562
  GI50: 30.1 µM (inactive)
SF-539
  GI50: 21 µM (inactive)
KM12
  GI50: 17.3 µM (inactive)
COLO 205
  GI50: 74.3 µM (inactive)
BT-549
  GI50: 17.9 µM (inactive)
CCRF-CEM
  GI50: 18.7 µM (inactive)
SK-OV-3
  GI50: 30.5 µM (inactive)
TK-10
  GI50: 25.9 µM (inactive)
HCT-116
  GI50: 21.1 µM (inactive)
DU-145
  GI50: 19.4 µM (inactive)
NCI-H460
  GI50: 24.9 µM (inactive)
Malme-3M
  GI50: 3.28 µM (inactive)
SK-MEL-28
  GI50: 16 µM (inactive)
OVCAR-4
  GI50: 19.3 µM (inactive)
SK-MEL-2
  GI50: 30.8 µM (inactive)
MDA-MB-231
  GI50: 15.5 µM (inactive)
SF-268
  GI50: 17.2 µM (inactive)
LOX IMVI
  GI50: 19.6 µM (inactive)

## N#C/C(N)=C(C#N)/N=C/NCc1ccccc1
EKVX
  GI50: > 100 µM (inactive)
IGROV-1
  GI50: > 100 µM (inactive)
CAKI-1
  GI50: > 100 µM (inactive)
A549
  GI50: > 100 µM (inactive)
NCI-H522
  GI50: > 100 µM (inactive)
SF-295
  GI50: > 100 µM (inactive)
HT-29
  GI50: > 100 µM (inactive)
SNB-75
  GI50: > 100 µM (inactive)
MDA-N
  GI50: > 100 µM (inactive)
PC-3
  GI50: > 100 µM (inactive)
SK-MEL-5
  GI50: > 100 µM (inactive)
OVCAR-8
  GI50: > 100 µM (inactive)
NCI-H226
  GI50: > 100 µM (inactive)
UACC-257
  GI50: > 100 µM (inactive)
SR
  GI50: > 100 µM (inactive)
OVCAR-3
  GI50: > 100 µM (inactive)
T47D
  GI50: 75.9 µM (inactive)
NCI/ADR-RES
  GI50: 50.1 µM (inactive)
Hs-578T
  GI50: > 100 µM (inactive)
MDA-MB-435
  GI50: > 100 µM (inactive)
RPMI-8226
  GI50: > 100 µM (inactive)
M14
  GI50: > 100 µM (inactive)
OVCAR-5
  GI50: > 100 µM (inactive)
HCT-15
  GI50: > 100 µM
SN12C
  GI50: > 100 µM (inactive)
HCC 2998
  GI50: > 100 µM (inactive)
SW-620
  GI50: > 100 µM (inactive)
UO-31
  GI50: > 100 µM (inactive)
MOLT-4
  GI50: > 100 µM (inactive)
HOP-62
  GI50: > 100 µM (inactive)
786-0
  GI50: > 100 µM (inactive)
A498
  GI50: > 100 µM (inactive)
NCI-H23
  GI50: > 100 µM (inactive)
U-251
  GI50: > 100 µM (inactive)
ACHN
  GI50: > 100 µM (inactive)
SNB-19
  GI50: > 100 µM (inactive)
MCF7
  GI50: > 100 µM (inactive)
K562
  GI50: > 100 µM (inactive)
HL-60
  GI50: > 100 µM (inactive)
SF-539
  GI50: > 100 µM (inactive)
KM12
  GI50: > 100 µM (inactive)
COLO 205
  GI50: > 100 µM (inactive)
BT-549
  GI50: > 100 µM (inactive)
CCRF-CEM
  GI50: > 100 µM (inactive)
SK-OV-3
  GI50: > 100 µM (inactive)
TK-10
  GI50: > 100 µM (inactive)
HCT-116
  GI50: > 100 µM (inactive)
DU-145
  GI50: > 100 µM (inactive)
NCI-H460
  GI50: > 100 µM (inactive)
Malme-3M
  GI50: > 100 µM (inactive)
SK-MEL-28
  GI50: > 100 µM (inactive)
OVCAR-4
  GI50: > 100 µM (inactive)
SK-MEL-2
  GI50: 38.4 µM (inactive)
UACC-62
  GI50: 95.5 µM (inactive)
MDA-MB-231
  GI50: > 100 µM (inactive)
SF-268
  GI50: > 100 µM (inactive)
LOX IMVI
  GI50: > 100 µM (inactive)

## COc1ccc(Cn2c(=O)c(OS(=O)(=O)C(F)(F)F)c(C)c3cc4ccccc4cc32)cc1
EKVX
  GI50: > 100 µM (inactive)
IGROV-1
  GI50: > 100 µM (inactive)
CAKI-1
  GI50: > 100 µM (inactive)
A549
  GI50: > 100 µM (inactive)
NCI-H522
  GI50: > 100 µM (inactive)
SF-295
  GI50: > 100 µM (inactive)
HT-29
  GI50: > 100 µM (inactive)
SNB-75
  GI50: > 100 µM (inactive)
MDA-N
  GI50: > 100 µM (inactive)
PC-3
  GI50: > 100 µM (inactive)
SK-MEL-5
  GI50: > 100 µM (inactive)
OVCAR-8
  GI50: > 100 µM (inactive)
NCI-H226
  GI50: > 100 µM (inactive)
UACC-257
  GI50: 36 µM (inactive)
SR
  GI50: > 100 µM (inactive)
OVCAR-3
  GI50: > 100 µM (inactive)
T47D
  GI50: > 100 µM (inactive)
NCI/ADR-RES
  GI50: > 100 µM (inactive)
Hs-578T
  GI50: > 100 µM (inactive)
MDA-MB-435
  GI50: > 100 µM (inactive)
M14
  GI50: > 100 µM (inactive)
OVCAR-5
  GI50: > 100 µM (inactive)
HCT-15
  GI50: > 100 µM
RXF 393
  GI50: > 100 µM (inactive)
SN12C
  GI50: > 100 µM (inactive)
HCC 2998
  GI50: > 100 µM (inactive)
SW-620
  GI50: > 100 µM (inactive)
UO-31
  GI50: > 100 µM (inactive)
MOLT-4
  GI50: > 100 µM (inactive)
HOP-62
  GI50: > 100 µM (inactive)
786-0
  GI50: > 100 µM (inactive)
NCI-H23
  GI50: > 100 µM (inactive)
U-251
  GI50: > 100 µM (inactive)
ACHN
  GI50: > 100 µM (inactive)
SNB-19
  GI50: > 100 µM (inactive)
MCF7
  GI50: > 100 µM (inactive)
K562
  GI50: > 100 µM (inactive)
HL-60
  GI50: > 100 µM (inactive)
SF-539
  GI50: > 100 µM (inactive)
KM12
  GI50: > 100 µM (inactive)
COLO 205
  GI50: > 100 µM (inactive)
BT-549
  GI50: > 100 µM (inactive)
CCRF-CEM
  GI50: > 100 µM (inactive)
SK-OV-3
  GI50: > 100 µM (inactive)
TK-10
  GI50: > 100 µM (inactive)
HCT-116
  GI50: > 100 µM (inactive)
DU-145
  GI50: > 100 µM (inactive)
NCI-H460
  GI50: > 100 µM (inactive)
Malme-3M
  GI50: 86.1 µM (inactive)
SK-MEL-28
  GI50: > 100 µM (inactive)
OVCAR-4
  GI50: 88.7 µM (inactive)
SK-MEL-2
  GI50: > 100 µM (inactive)
UACC-62
  GI50: > 100 µM (inactive)
MDA-MB-231
  GI50: > 100 µM (inactive)
SF-268
  GI50: > 100 µM (inactive)
LOX IMVI
  GI50: > 100 µM (inactive)

— ChEMBL document CHEMBL1201862, “PubChem BioAssay data set” (2004)
